Consider 20 molecules from patent publication US9169224B2, “Piperazinyl and piperidinyl ureas as modulators of fatty acid amide hydrolase” (Janssen Pharmaceutica NV, priority 2004, dated 2015).

Holding throughout (type): biochemical
For test [1], the target named is T1, FAAH (Homo sapiens (Human), UniProt O00519). Put plainly: Assay Method 1: FAAH assay, T84 cell homogenate, 3H-anandamide hydrolysis. Particulars: 3H-AEA tracer 200 nM, 1 h at rt. A digest of the protocol: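 Homogenate of human T84 cells in pH 9 Tris/EDTA buffer with 0.02% Triton X-100 was incubated with compound and 200 nM final 3H-anandamide for 1 h at rt. Released [3H]ethanolamine was separated from substrate through activated charcoal by centrifugation and quantified by scintillation counting.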

Test [2] has as its target rat FAAH (Rattus norvegicus (Rat), UniProt P97612). The experiment in a line: Assay Method 3: FAAH assay, cells transfected with rat FAAH. To be noted: T84 or rat FAAH-transfected SK-N-MC cell homogenate, 3H-AEA tracer 80 nM, 1 h at rt. How it is done:
Assay Method 3 A. Transfection of Cells with Rat FAAH
(§1) A 10-cm tissue culture dish with a confluent monolayer of SK-N-MC cells was split 2 days (d) prior to transfection. Using sterile technique, the media was removed and the cells were detached from the dish by the addition of trypsin. One fifth of the cells were then placed onto a new 10-cm dish. Cells were grown in a 37° C. incubator with 5% CO2 in Minimal Essential Media Eagle with 10% Fetal Bovine Serum. After 2 d, cells were approximately 80% confluent. These cells were removed from the dish with trypsin and pelleted in a clinical centrifuge. The pellet was re-suspended in 400 μL complete media and transferred to an electroporation cuvette with a 0.4 cm gap between the electrodes. Supercoiled rat FAAH cDNA (1 μg) was added to the cells and mixed. The voltage for the electroporation was set at 0.25 kV, and the capacitance was set at 960 μF. After electroporation, the cells were diluted into complete media (10 mL) and plated onto four 10-cm dishes. Because of the variability in the efficiency of electroporation, four different concentrations of cells were plated. The ratios used were 1:20, 1:10, and 1:5, with the remainder of the cells being added to the fourth dish. The cells were allowed to recover for 24 h before adding the selection media (complete media with 600 μg/mL G418). After 10 d, dishes were analyzed for surviving colonies of cells. Dishes with well-isolated colonies were used. Cells from individual colonies were isolated and tested.
(§2) T84 frozen cell pellets or transfected SK-N-MC cells (contents of 1×15 cm culture dishes) were homogenized in 50 mL of FAAH assay buffer (125 mM Tris, 1 mM EDTA, 0.2% Glycerol, 0.02% Triton X-100, 0.4 mM Hepes, pH 9). The assay mixture consisted of 50 μL of the cell homogenate, 10 μL of the test compound, and 40 μL of anandamide [1-^3H-ethanolamine] (^3H-AEA, Perkin-Elmer, 10.3 Ci/mmol), which was added last, for a final tracer concentration of 80 nM. The reaction mixture was incubated at rt for 1 h. During the incubation, 96-well Multiscreen filter plates (catalog number MAFCNOB50; Millipore, Bedford, Mass., USA) were loaded with 25 μL of activated charcoal (Multiscreen column loader, catalog number MACL09625, Millipore) and washed once with 100 μL of MeOH. Also during the incubation, 96-well DYNEX MicroLite plates (catalog number NL510410) were loaded with 100 μL of MicroScint40 (catalog number 6013641, Packard Bioscience, Meriden, Conn., USA). After the 1 h incubation, 60 μL of the reaction mixture were transferred to the charcoal plates, which were then assembled on top of the DYNEX plates using Centrifuge Alignment Frames (catalog number MACF09604, Millipore). The unbound labeled ethanolamine was centrifuged through to the bottom plate (5 min at 2000 rpm), which was preloaded with the scintillant, as described above. The plates were sealed and left at rt for 1 h before counting on a Hewlett Packard TopCount.

The target in test [3] is T1, FAAH. The experiment in a line: Assay Method 2: FAAH assay, cells transfected with human FAAH. Particulars: T84 or human FAAH-transfected SK-N-MC cell homogenate, 3H-AEA tracer 80 nM, 1 h at rt. How it is done:
Assay Method 2 A. Transfection of Cells with Human FAAH
as §1, with “Supercoiled human” for “Supercoiled rat”, “([…])” for “(1 μg)”
as §2, with “[…]” for “40 μL”

The IC50 is the concentration that inhibits the measured activity by half. Low readings indicate greater potency in that assay, high ones weaker potency in that assay.

Where a name gives a salt, the structure may show the parent alone. A value given as a limit tells only on which side of the number the result lay.

Chain of rat FAAH (P97612 whole entry): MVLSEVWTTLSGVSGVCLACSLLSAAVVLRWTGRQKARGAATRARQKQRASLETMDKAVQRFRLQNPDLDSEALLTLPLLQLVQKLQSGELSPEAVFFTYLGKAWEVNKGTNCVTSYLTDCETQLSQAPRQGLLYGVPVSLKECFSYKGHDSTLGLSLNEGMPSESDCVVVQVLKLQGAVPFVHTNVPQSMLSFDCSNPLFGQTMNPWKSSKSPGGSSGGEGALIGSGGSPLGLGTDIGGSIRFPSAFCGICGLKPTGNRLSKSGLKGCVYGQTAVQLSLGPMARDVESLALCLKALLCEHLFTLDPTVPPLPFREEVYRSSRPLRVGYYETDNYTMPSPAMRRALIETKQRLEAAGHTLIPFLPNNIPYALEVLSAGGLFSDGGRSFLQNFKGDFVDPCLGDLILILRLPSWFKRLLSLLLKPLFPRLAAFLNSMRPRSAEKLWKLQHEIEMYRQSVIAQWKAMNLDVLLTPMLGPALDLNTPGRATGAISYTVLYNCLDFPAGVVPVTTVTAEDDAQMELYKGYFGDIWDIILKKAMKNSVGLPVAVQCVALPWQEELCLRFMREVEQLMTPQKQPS
T1 sequence (O00519 whole entry): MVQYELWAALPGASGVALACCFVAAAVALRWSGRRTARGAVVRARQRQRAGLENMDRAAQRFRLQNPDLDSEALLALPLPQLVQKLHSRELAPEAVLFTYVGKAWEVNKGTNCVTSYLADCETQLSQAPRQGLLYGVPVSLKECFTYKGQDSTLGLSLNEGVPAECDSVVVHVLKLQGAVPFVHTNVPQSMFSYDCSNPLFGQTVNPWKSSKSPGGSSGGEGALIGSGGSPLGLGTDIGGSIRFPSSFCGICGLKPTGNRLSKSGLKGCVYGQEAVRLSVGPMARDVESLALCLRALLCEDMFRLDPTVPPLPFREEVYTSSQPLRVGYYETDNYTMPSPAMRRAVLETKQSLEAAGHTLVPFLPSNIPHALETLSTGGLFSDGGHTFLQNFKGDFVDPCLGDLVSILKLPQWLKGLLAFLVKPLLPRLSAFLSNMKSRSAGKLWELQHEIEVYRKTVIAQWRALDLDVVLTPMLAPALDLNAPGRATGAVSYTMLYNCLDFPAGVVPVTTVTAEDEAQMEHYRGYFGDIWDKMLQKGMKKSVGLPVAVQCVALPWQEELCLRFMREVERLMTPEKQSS

For `O=C(Nc1ccccc1)N1CCN(Cc2ccc3ccccc3n2)CC1` [Example 19, 4-Quinolin-2-ylmethyl-piperazine-1-carboxylic acid phenylamide], the values for the IC50 in test [1] and in test [2] were 19 nM and 0.35 µM, respectively.
The like results for `Cn1c(CN2CCN(C(=O)Nc3ccccc3)CC2)cc2ccccc21` [Example 22, 4-(1-Methyl-1H-indol-2-ylmethyl)-piperazine-1-carboxylic acid phenylamide] were, in that order, 26 nM and 1.4 µM.
Taken in the same sequence, the figures for `COc1cc(Br)cc(CN2CCN(C(=O)Nc3ccccc3)CC2)c1O` [Example 26, 4-(5-Bromo-2-hydroxy-3-methoxy-benzyl)-piperazine-1-carboxylic acid phenylamide] were 79 nM and 0.13 µM.
The like results for `O=C(Nc1ccc(F)cc1)N1CCN(Cc2ccc3ccccc3c2)CC1` [Example 57, 4-Naphthalen-2-ylmethyl-piperazine-1-carboxylic acid (4-fluoro-phenyl)-amide] were, in that order, 54 nM and 0.43 µM.
Take `O=C(Nc1ccccc1)N1CCN(Cc2ccc3ccc4cccc5ccc2c3c45)CC1` [Example 68, 4-Pyren-1-ylmethyl-piperazine-1-carboxylic acid phenylamide]: the IC50 was 95 nM in test [1] and 0.61 µM in test [2].
`COC(=O)c1ccccc1NC(=O)N1CCN(Cc2cnc3ccccc3c2)CC1` [Example 105, 2-[(4-Quinolin-3-ylmethyl-piperazine-1-carbonyl)-amino]-benzoic acid methyl ester]: the IC50 in test [2] is 10 µM; in test [3], more than 10000 nM.
Taken in the same sequence, the figures for `COC(=O)c1cccc(NC(=O)N2CCN(Cc3cnc4ccccc4c3)CC2)c1` [Example 106, 3-[(4-Quinolin-3-ylmethyl-piperazine-1-carbonyl)-amino]-benzoic acid methyl ester] were 2 µM and 230 nM.
On to `COC(=O)c1ccc(NC(=O)N2CCN(Cc3cnc4ccccc4c3)CC2)cc1` [Example 107, 4-[(4-Quinolin-3-ylmethyl-piperazine-1-carbonyl)-amino]-benzoic acid methyl ester], for which the figures for the IC50 in test [2] and in test [3] were 8 µM and 650 nM, respectively.
Take `O=C(Nc1ccc(F)cc1F)N1CCN(Cc2cnc3ccccc3c2)CC1` [Example 111, 4-Quinolin-3-ylmethyl-piperazine-1-carboxylic acid (2,4-difluoro-phenyl)-amide]: the figures for the IC50 in test [1] and in test [2] were 250 nM and 2 µM, respectively.
In the case of `O=C(Nc1ccccc1F)N1CCN(Cc2cnc3ccccc3c2)CC1` [Example 112, 4-Quinolin-3-ylmethyl-piperazine-1-carboxylic acid (2-fluoro-phenyl)-amide], the half-maximal inhibitory concentration (IC50) was determined as 61 nM in test [1] and 0.37 µM in test [2].
Consider `O=C(O)c1ccccc1NC(=O)N1CCN(Cc2cnc3ccccc3c2)CC1` [Example 140, 2-[(4-Quinolin-3-ylmethyl-piperazine-1-carbonyl)-amino]-benzoic acid (potassium salt)], for which the concentration for half-maximal inhibition (IC50) was 10 µM in test [2] and more than 10000 nM in test [3].
Regarding `O=C(O)c1cccc(NC(=O)N2CCN(Cc3cnc4ccccc4c3)CC2)c1` [Example 141, 3-[(4-Quinolin-3-ylmethyl-piperazine-1-carbonyl)-amino]-benzoic acid (potassium salt)], the IC50 came to 8 µM in test [2] and 5000 nM in test [3].
As for `O=C(Nc1cccnc1)N1CCN(Cc2cnc3ccccc3c2)CC1` [Example 142, 4-Quinolin-3-ylmethyl-piperazine-1-carboxylic acid pyridin-3-ylamide], the IC50 in test [2] came out at 4 µM; in test [3], 4100 nM.
The like results for `O=C(Nc1ccccn1)N1CCN(Cc2cnc3ccccc3c2)CC1` [Example 143, 4-Quinolin-3-ylmethyl-piperazine-1-carboxylic acid pyridin-2-ylamide] were, in that order, 8 µM and 1800 nM.
Taken in the same sequence, the figures for `O=C(Nc1ccncc1)N1CCN(Cc2cnc3ccccc3c2)CC1` [Example 144, 4-Quinolin-3-ylmethyl-piperazine-1-carboxylic acid pyridin-4-ylamide] were 10 µM and 2000 nM.
The like results for `O=C(Nc1ncccn1)N1CCN(Cc2cnc3ccccc3c2)CC1` [Example 145, 4-Quinolin-3-ylmethyl-piperazine-1-carboxylic acid pyrimidin-2-ylamide] were, in that order, 10 µM and 8000 nM.
For `O=C(Nc1cccnc1)N1CCN(Cc2ccc3c(c2)OCO3)CC1` [Example 146, 4-Benzo[1,3]dioxol-5-ylmethyl-piperazine-1-carboxylic acid pyridin-3-ylamide], the IC50 in test [2] worked out at 6.5 µM; in test [3], 380 nM.
Take `O=C(Nc1ccccc1)N1CCN(Cc2ccc(Br)c(Br)c2)CC1` [Example 162, 4-(3,4-Dibromo-benzyl)-piperazine-1-carboxylic acid phenylamide hydrochloride]: the 50% inhibitory concentration (IC50) in test [1] (hydrochloride) stood at 38 nM; in test [2] (hydrochloride) it was 0.27 µM.
Regarding `O=C(Nc1ccccc1)N1CCN(Cc2ccc3c(c2)OCO3)CC1` [Example B, 4-Benzo[1,3]dioxol-5-ylmethyl-piperazine-1-carboxylic acid phenylamide, reference compound], the IC50 in test [1] was 350 nM; in test [2] it was 8 µM.
Taken in the same sequence, the figures for `O=C(Nc1ccc(F)cc1)N1CCN(Cc2ccc3c(c2)OCO3)CC1` [Example G, 4-Benzo[1,3]dioxol-5-ylmethyl-piperazine-1-carboxylic acid (4-fluoro-phenyl)-amide, reference compound] were 1600 nM and 10 µM.
